Earlier results on one molecule are cited in EP0965341A2 (priority 1998, dated 1999).

The data set has as its system Atrial Fibrillation-Induced Electrical Remodeling. Particulars: pretreatment before AF; conclusion quoted from Circulation vol. 96, No.5, Sept. 1997.

Consider `CCN(CC)CCNC(=O)c1ccc(N)cc1` [procainamide], for which the “acute, AF-induced changes in atrial electrophysiological properties” value was “not”.
